Converted amounts (≈) assume the structure as drawn.
Legend:
Format in all cases: physicochemical
[1] = Slurry-based complexation/solubilization of CFZ-API in SBECD with citric acid (Example 1); conditions: SBECD/WFI/citric acid slurry, 2-8° C., mixed a further 24 hours
Protocol: In a 525 L stainless steel jacketed cooled tank controlled to 2° C.-8° C., a suspension of 2.0 kg carfilzomib-API (CFZ-API), 246 kg water for injection (WFI), and 100 kg sulfobutylether beta-cyclodextrin (SBECD) was prepared. Specifically, in the 525 L stainless steel jacketed cooled tank controlled to 2° C.-8° C., 100 kg SBECD was dissolved in 246 kg WFI. The Carfilzomib suspension was then prepared using 2.0 kg of CFZ-API. Mixing was performed using an impeller mixer to maintain suspension of the CFZ-API solids and dissolve the SBECD. In the same vessel, a probe style rotor-stator high shear mixer (homogenizer) was used as well as the low shear impeller. The high shear mixer was operated for approximately 1 hour yielding an even suspension and reduction of particle size for any larger primary particles or agglomerated API. After a suspension was achieved, 1.96 kg of citric acid was added as a 16% aqueous solution. The pH of the solution was then lowered inducing partial solubilization of the CFZ-API followed by and complexation due to the presence of SBECD. Mixing was continued for a further 24 hours with both the impeller and the high shear mixer and a dissolved concentration of CFZ-API of greater than 5.1 mg/mL was achieved. […]

[2] = Chlorohydrin degradation product (CDP) formation in lyophilized carfilzomib/SBECD product by HPLC: pH, water and sodium chloride varied (Example 2)
Protocol: A multivariate statistical design of experiments was conducted to assess factors controlling the level of chlorohydrin degradation product as a function of processing parameters and storage time over six months. The complexation was performed in the proportion and parameters given in Example 1, with the following modifications: (i) the complexation process was performed at 2 L batch size; (ii) the final pH of solution before vial filling was varied for purposes of the experiment from 3.0, to 4.0; (iii) sodium chloride was spiked into SBECD in some experiments to create a high sodium chloride condition; (iv) water content of the lyophilized final product in stoppered vials was produced at high and low sodium chloride conditions via early termination and stoppering of vials to create a higher residual water content condition.
The solution of complexed carfilzomib for injection bulk solution pre-lyophilization included aqueous 5 mg/mL carfilzomib, 250 mg/mL Captisol® (SBECD) and 4.86 mg/mL citric acid, pH adjusted with aqueous sodium hydroxide. Compounding of the bulk solutions for lyophilization followed the procedure detailed in Example 1 with the following manipulations to create solutions with different specific attributes: • 1. pH was adjusted to 3.0 and 4.0 • 2. Sodium chloride was spiked into the Captisol® to create a “High Chloride” condition Captisol® manufactured by Cydex, a subsidiary of Ligand, has a standard product analysis range for sodium chloride from 0.05% to 0.2% (w/v). […] 400 g of this Captisol® was required per batch for the process to be performed at 2 L scale batches of complexation processing (in same proportions and general parameters per Example 1). To create the “high chloride” condition, 0.6 g of NaCl was added to 399.4 g of Captisol® which thus mimicked what a batch containing 0.2% chloride Captisol® would be comprised of.
In order to generate two (2) moisture content conditions in the final lyophilized vials, two (2) sets of 61.8 mg/vial (of CFZ-API) samples were lyophilized. The first cycle generated the “dry” sample set of vials containing approximately 0.6% residual water per Example 1 lyophilization parameters. For the second sample set, lyophilization was terminated and vials stoppered earlier in the secondary drying phase to generate the “wet” condition vials, with residual moisture approximately 2.4% water per vial initially.
The bulk solution of complexed carfilzomib was analyzed during manufacture by High Performance Liquid Chromatography (HPLC) to accurately quantify the concentration of dissolved and complexed carfilzomib drug substance. Subsequently, additional water was added to accurately dilute the bulk complexed solution. After this dilution step, HPLC was used again to ensure a target concentration of 5.0 mg/mL was achieved. Samples of the three (3) final bulk solutions were analyzed for potency and purity confirmation testing by HPLC. […] Karl Fischer Coulometry method was used for the water content determination in the lyophilized drug product.

[3] = Compounding study: dissolved carfilzomib versus time in 25% (w/v) SBE-β-CD (Example 5); conditions: CFZ-API suspension in 25% (w/v) SBE-β-CD solution, aqueous with cosolvent or surfactant or cyclodextrin, thermodynamic from solid, read-out: solubilized concentration during compounding
Protocol: SBE-β-CD was dissolved in WFI to achieve 25% (w/v) solution. A suspension of CFZ-API in the SBE-β-CD solution was prepared by homogenization per the solubility study
API solids were added in all experiments to theoretically yield a ˜6 mg/mL final solution to mimic the commercial process
After homogenization, pH was lowered using citric acids to affect solubilization, while continuing mixing up 24 hours. Then, all preparations were adjusted to pH 3.5. Dissolved concentration as a function of time was measured by sampling, filtration, then HPLC analysis to monitor the kinetics of complexation in the slurry based process.

## CC(C)C[C@H](NC(=O)[C@H](CCc1ccccc1)NC(=O)CN1CCOCC1)C(=O)N[C@@H](Cc1ccccc1)C(=O)N[C@@H](CC(C)C)C(=O)[C@@]1(C)CO1 [carfilzomib]
[1]
  dissolved concentration of CFZ-API: greater than 5.1 mg/mL
[2]; 5° C., pH 3.00, water 0.7%, sodium chloride 0.05%
  % Area of CDP after 6 months (HPLC data): 0.00 % Area
[2]; 5° C., pH 3.00, water 0.7%, sodium chloride 0.2%
  % Area of CDP after 6 months (HPLC data): 0.13 % Area
[2]; 5° C., pH 3.00, water 2%, sodium chloride 0.05%
  % Area of CDP after 6 months (HPLC data): 0.02 % Area
[2]; 5° C., pH 3.00, water 2%, sodium chloride 0.2%
  % Area of CDP after 6 months (HPLC data): 0.28 % Area
[2]; 5° C., pH 4.00, water 0.7%, sodium chloride 0.05%
  % Area of CDP after 6 months (HPLC data): 0.00 % Area
[2]; 5° C., pH 4.00, water 0.7%, sodium chloride 0.2%
  % Area of CDP after 6 months (HPLC data): 0.08 % Area
[2]; 5° C., pH 4.00, water 2%, sodium chloride 0.05%
  % Area of CDP after 6 months (HPLC data): 0.02 % Area
[2]; 5° C., pH 4.00, water 2%, sodium chloride 0.2%
  % Area of CDP after 6 months (HPLC data): 0.18 % Area
[2]; 25° C., pH 3.00, water 0.7%, sodium chloride 0.05%
  % Area of CDP after 6 months (HPLC data): 0.14 % Area
[2]; 25° C., pH 3.00, water 0.7%, sodium chloride 0.2%
  % Area of CDP after 6 months (HPLC data): 0.70 % Area
[2]; 25° C., pH 3.00, water 2%, sodium chloride 0.05%
  % Area of CDP after 6 months (HPLC data): 0.55 % Area
[2]; 25° C., pH 4.00, water 0.7%, sodium chloride 0.05%
  % Area of CDP after 6 months (HPLC data): 0.09 % Area
[2]; 25° C., pH 4.00, water 0.7%, sodium chloride 0.2%
  % Area of CDP after 6 months (HPLC data): 0.36 % Area
[2]; 25° C., pH 4.00, water 2%, sodium chloride 0.05%
  % Area of CDP after 6 months (HPLC data): 0.35 % Area
[3]; first 2 hours
  solubility at 2 h: 4500 µg/mL (≈ 6.25 mM)
[3]; slow equilibration phase, in >20 hours
  solubility: 5500 µg/mL (≈ 7.64 mM)
